SMILES | melting point
CN(Cc1sc2c(=O)c(C(=O)NCc3ccc(Cl)cc3)cn(C)c2c1CO)CC(O)c1ccc(C#N)s1 (stereo not drawn) [Example 85, N-(4-Chlorobenzyl)-2-{[[2-(5-cyanothien-2-yl)-2-hydroxyethyl](methyl)amino]methyl}-3-(hydroxymethyl)-4-methyl-7-oxo-4,7-dihydrothieno[3,2-b]pyridine-6-carboxamide] | 188 to 190 °C
COCCOCc1c(CN(C)CC(O)c2ccc(C#N)s2)sc2c(=O)c(C(=O)NCc3ccc(Cl)cc3)cn(C)c12 (stereo not drawn) [Example 80, N-(4-Chlorobenzyl)-2-{[[2-(5-cyanothien-2-yl)-2-hydroxyethyl](methyl)amino]methyl}-3-[(2-methoxyethoxy)methyl]-4-methyl-7-oxo-4,7-dihydrothieno[3,2-b]pyridine-6-carboxamide] | 163 to 164 °C
CN(Cc1sc2c(=O)c(C(=O)NCc3ccc(Cl)cc3)cn(C)c2c1CNS(C)(=O)=O)C[C@@H](O)c1ccccn1 [Example 92, N-(4-Chlorobenzyl)-2-{[[(2R)-2-hydroxy-2-pyridin-2-ylethyl](methyl)amino]methyl}-4-methyl-3-{[(methylsulfonyl)amino]methyl}-7oxo-4,7-dihydrothieno[3,2-b]pyridine-6-carboxamide] | 171 to 177 °C (dec.)
COCCOCc1c(CN(C)CC(O)c2cccnc2)sc2c(=O)c(C(=O)NCc3ccc(Cl)cc3)cn(C)c12 (stereo not drawn) [Example 72, N-(4-Chlorobenzyl)-2-{[(2-hydroxy-2-pyridin-3-ylethyl)(methyl)amino]methyl}-3-[(2-methoxyethoxy)methyl]-4-methyl-7-oxo-4,7-dihydrothieno[3,2-b]pyridine-6-carboxamide] | 129 to 132 °C
COCCOCc1c(CN(C)C[C@@H](O)c2ccco2)sc2c(=O)c(C(=O)NCc3ccc(Cl)cc3)cn(C)c12 [Example 74, N-(4-Chlorobenzyl)-2-{[[(2R)-2-(2-furyl)-2-hydroxyethyl](methyl)amino]methyl}-3-[(2-methoxyethoxy)methyl]-4-methyl-7-oxo-4,7-dihydrothieno[3,2-b]pyridine-6-carboxamide] | 146 to 147 °C
COCCOCc1c(CN(C)CC(O)c2cccc(OC)c2)sc2c(=O)c(C(=O)NCc3ccc(Cl)cc3)cn(C)c12 (stereo not drawn) [Example 73, N-(4-Chlorobenzyl)-2-{[[2-hydroxy-2-(3-methoxyphenyl)ethyl](methyl)amino]methyl}-3-[(2-methoxyethoxy)methyl]-4-methyl-7-oxo-4,7-dihydrothieno[3,2-b]pyridine-6-carboxamide] | 135 to 138 °C
COCCOCc1c(CN(C)CC(O)c2ccccn2)sc2c(=O)c(C(=O)NCc3ccc(Cl)cc3)cn(C)c12 (stereo not drawn) [Example 76, N-(4-Chlorobenzyl)-2-{[(2-hydroxy-2-pyridin-2-ylethyl)(methyl)amino]methyl}-3-[(2-methoxyethoxy)methyl]-4-methyl-7-oxo-4,7-dihydrothieno[3,2-b]pyridine-6-carboxamide] | 150.5 to 152 °C
COCCOCc1c(CN(C)CC(O)c2c[nH]c3ccccc23)sc2c(=O)c(C(=O)NCc3ccc(Cl)cc3)cn(C)c12 (stereo not drawn) [Example 75, N-(4-Chlorobenzyl)-2-{[[2-hydroxy-2-(1H-indol-3-yl)ethyl](methyl)amino]methyl}-3-[(2-methoxyethoxy)methyl]-4-methyl-7-oxo-4,7-dihydrothieno[3,2-b]pyridine-6-carboxamide] | 167 to 169 °C
CN(Cc1sc2c(=O)c(C(=O)NCc3ccc(Cl)cc3)cn(C)c2c1CO)CC(O)c1ccc2ccccc2n1 (stereo not drawn) [Example 89, N-(4-Chlorobenzyl)-3-(hydroxymethyl)-2-{[(2-hydroxy-2-quinolin-2-ylethyl)(methyl)amino]methyl}-4-methyl-7-oxo-4,7-dihydrothieno[3,2-b]pyridine-6-carboxamide] | 196 to 198 °C
COc1cccc(C(O)CN(C)Cc2sc3c(=O)c(C(=O)NCc4ccc(Cl)cc4)cn(C)c3c2CO)c1 (stereo not drawn) [Example 86, N-(4-Chlorobenzyl)-2-{[[2-hydroxy-2-(3-methoxyphenyl)ethyl](methyl)amino]methyl}-3-(hydroxymethyl)-4-methyl-7-oxo-4,7-dihydrothieno[3,2-b]pyridine-6-carboxamide] | 165 to 168 °C
CN(Cc1sc2c(=O)c(C(=O)NCc3ccc(Cl)cc3)cn(C)c2c1COCC[Si](C)(C)C)CC(O)c1cnccn1 (stereo not drawn) | 154.9 to 155.5 °C
C=CCOCc1c(CN(C)C[C@@H](O)c2ccccn2)sc2c(=O)c(C(=O)NCc3ccc(Cl)cc3)cn(C)c12 [Example 81, 3-[(Allyloxy)methyl]-N-(4-chlorobenzyl)-2-{[[(2R)-2-hydroxy-2-pyridin-2-ylethyl](methyl)amino]methyl}-4-methyl-7-oxo-4,7-dihydrothieno[3,2-b]pyridine-6-carboxamide] | 125 to 127 °C
CN(Cc1sc2c(=O)c(C(=O)NCc3ccc(Cl)cc3)cn(C)c2c1CO)CC(O)c1cnccn1 (stereo not drawn) [Example 84, N-(4-Chlorobenzyl)-3-(hydroxymethyl)-2-{[(2-hydroxy-2-pyrazin-2-ylethyl)(methyl)amino]methyl}-4-methyl-7-oxo-4,7-dihydrothieno[3,2-b]pyridine-6-carboxamide] | 211 to 213 °C
CN(Cc1sc2c(=O)c(C(=O)NCc3ccc(Cl)cc3)cn(C)c2c1CN)C[C@@H](O)c1ccccn1 [Example 91, 3-(Aminomethyl)-N-(4-chlorobenzyl)-2-{[[(2R)-2-hydroxy-2-pyridin-2-ylethyl](methyl)amino]methyl}-4-methyl-7-oxo-4,7-dihydrothieno[3,2-b]pyridine-6-carboxamide] | 144 to 148 °C
COCCOCc1c(CN(C)CC(O)c2ncccn2)sc2c(=O)c(C(=O)NCc3ccc(Cl)cc3)cn(C)c12 (stereo not drawn) [Example 77, N-(4-Chlorobenzyl)-2-{[(2-hydroxy-2-pyrimidin-2-ylethyl)(methyl)amino]methyl}-3-[(2-methoxyethoxy)methyl]-4-methyl-7-oxo-4,7-dihydrothieno[3,2-b]pyridine-6-carboxamide] | 146.5 to 147.5 °C
